Data on eleven molecules can be found in US20250129094A1, “NEW QUINOLINE DERIVATIVES” (ELANCO ANIMAL HEALTH GMBH, priority 2021, published 2025).

Test [1] has as its system H. contortus and/or T. colubriformis. Description: In vivo assay 3: gastro intestinal nematodes H. contortus and T. colubriformis in jirds. Particulars: jirds (Meriones unguiculatus), at ≤1.0 mg/kg intraperitoneal, treated once on Day 6 after infection.
Method: In Vivo Assay 3: Gastro Intestinal Nematodes of H. contortus (Haemonchus contortus) and T. colubriformis (Trichostrongylus colubriformis)
Jirds (Meriones unguiculatus), immunosuppressed by administration of rodent feed containing hydrocortisone 21-acetate, were experimentally infected with third instar larvae each of T. colubriformis and H. contortus by oral gavage and were treated once orally or intraperitoneally with the formulated test compound on Day 6 after infection. Three days after treatment, jirds were euthanized and dissected to recover H. contortus from stomach and T. colubriformis from the small intestine. Efficacy is expressed as a % reduction in worm numbers in comparison with a placebo treated group, using the Abbot's formula.
Another test has as its target D. immitis Slo-1 (Dirofilaria immitis, UniProt I0DFK5). Description: D. immitis Slo-1 - action at a recombinant D. immitis cell line (membrane potential, FLIPR). In kind it is cell-based.
Another test deals with A. viteae. Particulars: jirds (Meriones unguiculatus), at ≤25.0 mg/kg per oral, treated once, necropsy 12 weeks after infection.

Where two headings read alike, the source gives them in different places.

Sequence of D. immitis Slo-1 (I0DFK5 1-1119): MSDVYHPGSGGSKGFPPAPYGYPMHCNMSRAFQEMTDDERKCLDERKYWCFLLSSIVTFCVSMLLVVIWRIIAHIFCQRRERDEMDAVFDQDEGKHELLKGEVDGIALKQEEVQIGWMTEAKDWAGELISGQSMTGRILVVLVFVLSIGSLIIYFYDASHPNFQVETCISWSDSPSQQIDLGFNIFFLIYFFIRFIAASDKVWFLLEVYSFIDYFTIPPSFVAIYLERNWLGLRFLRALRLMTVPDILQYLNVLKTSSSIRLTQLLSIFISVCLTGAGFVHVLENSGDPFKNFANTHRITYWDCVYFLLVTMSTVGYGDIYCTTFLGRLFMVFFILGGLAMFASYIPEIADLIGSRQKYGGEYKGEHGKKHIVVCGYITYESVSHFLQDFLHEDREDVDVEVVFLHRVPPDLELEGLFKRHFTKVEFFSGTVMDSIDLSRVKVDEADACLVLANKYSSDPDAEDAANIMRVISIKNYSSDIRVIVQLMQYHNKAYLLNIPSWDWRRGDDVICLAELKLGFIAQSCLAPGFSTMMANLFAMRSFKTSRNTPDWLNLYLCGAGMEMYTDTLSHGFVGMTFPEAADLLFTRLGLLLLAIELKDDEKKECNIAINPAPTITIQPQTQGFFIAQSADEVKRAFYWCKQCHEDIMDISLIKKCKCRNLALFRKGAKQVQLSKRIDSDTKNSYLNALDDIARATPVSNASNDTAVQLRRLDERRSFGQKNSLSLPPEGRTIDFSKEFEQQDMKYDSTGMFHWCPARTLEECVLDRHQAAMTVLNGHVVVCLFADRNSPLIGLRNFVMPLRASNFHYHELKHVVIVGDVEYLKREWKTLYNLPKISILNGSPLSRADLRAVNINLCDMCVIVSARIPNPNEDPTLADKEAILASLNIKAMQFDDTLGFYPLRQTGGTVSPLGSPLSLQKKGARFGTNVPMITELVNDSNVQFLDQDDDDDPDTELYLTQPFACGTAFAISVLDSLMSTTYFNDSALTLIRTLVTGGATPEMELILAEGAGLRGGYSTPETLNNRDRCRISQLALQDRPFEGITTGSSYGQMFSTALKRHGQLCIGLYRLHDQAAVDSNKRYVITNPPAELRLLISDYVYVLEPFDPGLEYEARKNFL
From the text for A. viteae: Jirds (Meriones unguiculatus), experimentally infected with infective A. viteae larvae via subcutaneous injection were subsequently treated once with the formulated test compound by oral gavage or intraperitoneally. At necropsy 12 weeks after infection, efficacy was expressed as a % reduction in worm numbers in comparison with the placebo treated group, using the Abbot's formula.

Take `O=C(N[C@H]1CCOc2ccccc21)c1cnc2c(-c3cc(F)cc(F)c3F)c(F)ccc2c1C1C[S+]([O-])C1` (single isomer, unassigned) [Example 5]: the “activity (% reduction in worm numbers)” value in test [1] is recorded as 100%. Regarding `O=C(N[C@H]1CCOc2ccccc21)c1cnc2c(-c3cc(F)cc(F)c3F)c(F)ccc2c1C1C[S+]([O-])C1` (single isomer, unassigned) [Example 6], the EC50 on D. immitis Slo-1 (read-out: pE50, stable CHO cell line expressing D. immitis Slo-1, voltage sensitive dye, upper limit in μM) lay in the range of 0.1 to 1 µM. Regarding `O=C1CC(c2c(C(=O)N[C@H]3CCOc4ccccc43)cnc3c(-c4cc(F)cc(F)c4F)c(F)ccc23)C1` [Example 1, N-[(4S)-3,4-dihydro-2H-chromen-4-yl]-7-fluoro-4-(3-oxocyclobutyl)-8-(2,3,5-trifluorophenyl) quinoline-3-carboxamide], the “activity (% reduction in worm numbers)” value (with A. viteae; in test [1]) was 100% each time. On D. immitis Slo-1, the EC50 was in the range of 0.001 to 0.01 µM. Turning to `O=C(N[C@H]1CCOc2ccccc21)c1cnc2c(-c3cc(F)cc(F)c3F)c(F)ccc2c1C1CS(=O)(=O)C1` [Example 3, N-[(4S)-3,4-dihydro-2H-chromen-4-yl]-4-(1,1-dioxidothietan-3-yl)-7-fluoro-8-(2,3,5-trifluorophenyl) quinoline-3-carboxamide], at D. immitis Slo-1, the EC50 is 0.01 to 0.1 µM.

As to `O=C(N[C@H]1CCOc2ccccc21)c1cnc2c(-c3cc(F)cc(F)c3F)c(F)ccc2c1C1CCOC1` (stereo partly drawn) [Example 7, N-[(4S)-3,4-dihydro-2H-1-benzopyran-4-yl]-7-fluoro-4-(oxolanyl)-8-(2,3,5-trifluorophenyl) quinoline-3-carboxamide], the EC50 on D. immitis Slo-1 is 0.001 to 0.01 µM. In the case of `O=C(N[C@H]1CCOc2ccccc21)c1cnc2c(-c3cc(F)cc(F)c3F)c(F)ccc2c1[C@@H]1CCOC1` [Example 8, N-[(4S)-3,4-dihydro-2H-1-benzopyran-4-yl]-7-fluoro-4-(oxolan-(3S)-yl)-8-(2,3,5-trifluorophenyl) quinoline-3-carboxamide], in test [1], the “activity (% reduction in worm numbers)” value is 100%. For the same molecule, the EC50 at D. immitis Slo-1 is 0.001 to 0.01 µM. The matching figures for `O=C(N[C@H]1CCOc2ccccc21)c1cnc2c(-c3cc(F)cc(F)c3F)c(F)ccc2c1[C@H]1CCOC1` [Example 9, N-[(4S)-3,4-dihydro-2H-1-benzopyran-4-yl]-7-fluoro-4-(oxolan-(3R)-yl)-8-(2,3,5-trifluorophenyl) quinoline-3-carboxamide]: 100% and 0.001 to 0.01 µM. On the same counts, the results for `N=S1(=O)CC(c2c(C(=O)N[C@H]3CCOc4ccccc43)cnc3c(-c4cc(F)cc(F)c4F)c(F)ccc23)C1` (stereo partly drawn) [Example 10, N-[(4S)-3,4-dihydro-2H-chromen-4-yl]-7-fluoro-4-(1-imino-1-oxido-1lambda^4-thietan-3-yl)-8-(2,3,5-trifluorophenyl) quinoline-3-carboxamide] are 100% and 0.001 to 0.01 µM. Turning to `O=C(N[C@H]1CCOc2ccccc21)c1cnc2c(-c3cc(Cl)cc(Cl)c3)c(F)ccc2c1N1CCOC2CC21` (stereo partly drawn) [Example 13, 4-(2-oxa-5-azabicyclo[4.1.0]heptan-5-yl)-N—((S)-chroman-4-yl)-8-(3,5-dichlorophenyl)-7-fluoroquinoline-3-carboxamide], the EC50 at D. immitis Slo-1 fell in the range of 0.001 to 0.01 µM.

As to `O=C(N[C@H]1CCOc2ccccc21)c1cnc2c(-c3cc(F)cc(F)c3F)c(F)ccc2c1[C@H]1C[C@H](F)C1` [Example 15, N—((S)-chroman-4-yl)-7-fluoro-4-((1R,3S)-3-fluorocyclobutyl)-8-(2,3,5-trifluorophenyl) quinoline-3-carboxamide], the “activity (% reduction in worm numbers)” value in test [1] was determined as 100%. In addition, the EC50 at D. immitis Slo-1 lay in the range of 0.001 to 0.01 µM. As to `O=C1CN(c2c(C(=O)N[C@H]3CCOc4ccccc43)cnc3c(-c4cc(F)cc(F)c4F)c(F)ccc23)CCN1` [Example 16, N—((S)-chroman-4-yl)-7-fluoro-4-(3-oxopiperazin-1-yl)-8-(2,3,5-trifluorophenyl) quinoline-3-carboxamide], the “activity (% reduction in worm numbers)” value in test [1] was 100%.
